Values after ≈ are worked out from the molar mass of the structure shown.
Experiments:
Experiment in all cases: In vitro antifungal activity (MIC), serial agar dilution method
Assay type in all cases: cell-based
Settings in all cases: Sabouraud dextrose agar, 40 hours at 28° C.
Aspergillus fumigatus = tested on: Aspergillus fumigatus
Procedure: (§1) Antifungal activities of representative compounds of the present invention were evaluated in vitro. The minimum inhibitory concentrations (MICs) against various fungi were determined by serial agar dilution method using Sabouraud dextrose agar. Thus, approximately 0.003 ml of fungal suspension containing 10^6 cells/ml was applied to the surface of agar plates containing the test antibiotics. The MIC values recorded after the cultures had been incubated for 40 hours at 28° C. are set forth below in Table 1.

[1] = tested on: Trichophyton mentagrophytes
Procedure: as §1

Cryptococcus neoformans = tested on: Cryptococcus neoformans
Procedure: as §1

Candida albicans = tested on: Candida albicans
Procedure: as §1

MIC (Aspergillus fumigatus) [mg/L]	MIC [1] [mg/L]	MIC (Cryptococcus neoformans) [mg/L]	MIC (Candida albicans) [mg/L]	Structure (SMILES)
6.3 (≈ 7.49 µM)	6.3 (≈ 7.49 µM)	1.6 (≈ 1.9 µM)	6.3 (≈ 7.49 µM)	CN[C@@H]1[C@H](O[C@@H]2OC[C@H](O)[C@H](O)[C@H]2O)[C@@H](O)[C@H](O[C@H]2c3cc(C)c(C(=O)N[C@H](C)C(=O)O)c(O)c3-c3c(cc4c(c3O)C(=O)c3cc(OC)cc(O)c3C4=O)[C@@H]2O)O[C@@H]1C [Example 3, 3'-O-(α-L-Arabinopyranosyl)pradimicin B]
12.5 (≈ 14.9 µM)	25 (≈ 29.7 µM)	1.6 (≈ 1.9 µM)	> 25	CN[C@@H]1[C@H](O[C@@H]2OC[C@@H](O)[C@@H](O)[C@H]2O)[C@@H](O)[C@H](O[C@H]2c3cc(C)c(C(=O)N[C@H](C)C(=O)O)c(O)c3-c3c(cc4c(c3O)C(=O)c3cc(OC)cc(O)c3C4=O)[C@@H]2O)O[C@@H]1C [Example 2, 3'-O-(β-D-Ribopyranosyl)-pradimicin B]
3.1 (≈ 3.63 µM)	1.6 (≈ 1.87 µM)	1.6 (≈ 1.87 µM)	25 (≈ 29.2 µM)	CN[C@@H]1[C@H](O[C@@H]2O[C@H](C)[C@@H](O)[C@H](O)[C@H]2O)[C@@H](O)[C@H](O[C@H]2c3cc(C)c(C(=O)N[C@H](C)C(=O)O)c(O)c3-c3c(cc4c(c3O)C(=O)c3cc(OC)cc(O)c3C4=O)[C@@H]2O)O[C@@H]1C [Example 4, 3'-O-(6-Deoxy-β-D-glucopyranosyl)pradimicin B]
> 100	> 100	1.6 (≈ 1.9 µM)	50 (≈ 59.5 µM)	CN[C@@H]1[C@H](O[C@H]2OC[C@H](O)[C@@H](O)[C@@H]2O)[C@@H](O)[C@H](O[C@H]2c3cc(C)c(C(=O)N[C@H](C)C(=O)O)c(O)c3-c3c(cc4c(c3O)C(=O)c3cc(OC)cc(O)c3C4=O)[C@@H]2O)O[C@@H]1C [Example 1, 3'-O-(β-L-xylopyranosyl)pradimicin B]
3.1 (≈ 3.56 µM)	3.1 (≈ 3.56 µM)	1.6 (≈ 1.84 µM)	12.5 (≈ 14.4 µM)	CN[C@@H]1[C@H](O[C@@H]2O[C@H](CO)[C@@H](O)[C@H](O)[C@H]2O)[C@@H](O)[C@H](O[C@H]2c3cc(C)c(C(=O)N[C@H](C)C(=O)O)c(O)c3-c3c(cc4c(c3O)C(=O)c3cc(OC)cc(O)c3C4=O)[C@@H]2O)O[C@@H]1C [Example 6, 3'-O-β-D-glucopyranosylpradimicin B]
3.1 (≈ 3.63 µM)	1.6 (≈ 1.87 µM)	1.6 (≈ 1.87 µM)	6.3 (≈ 7.37 µM)	CN[C@@H]1[C@H](O[C@@H]2O[C@H](C)[C@H](O)[C@H](O)[C@H]2O)[C@@H](O)[C@H](O[C@H]2c3cc(C)c(C(=O)N[C@H](C)C(=O)O)c(O)c3-c3c(cc4c(c3O)C(=O)c3cc(OC)cc(O)c3C4=O)[C@@H]2O)O[C@@H]1C [Example 5, 3'-O-(β-D-Fucopyranosyl)pradimicin B]
1.6 (≈ 1.9 µM)	1.6 (≈ 1.9 µM)	0.8 (≈ 0.951 µM)	50 (≈ 59.5 µM)	CN[C@@H]1[C@H](O[C@@H]2OC[C@@H](O)[C@H](O)[C@H]2O)[C@@H](O)[C@H](O[C@H]2c3cc(C)c(C(=O)N[C@H](C)C(=O)O)c(O)c3-c3c(cc4c(c3O)C(=O)c3cc(OC)cc(O)c3C4=O)[C@@H]2O)O[C@@H]1C [Pradimicin A, reference compound]

Structure (SMILES)	MIC (Aspergillus fumigatus) [mg/L]	MIC [1] [mg/L]	MIC (Cryptococcus neoformans) [mg/L]	MIC (Candida albicans) [mg/L]
CN[C@@H]1[C@H](O)[C@@H](O)[C@H](O[C@H]2c3cc(C)c(C(=O)N[C@H](C)C(=O)O)c(O)c3-c3c(cc4c(c3O)C(=O)c3cc(OC)cc(O)c3C4=O)[C@@H]2O)O[C@@H]1C [Pradimicin B, reference compound]	6.3 (≈ 8.89 µM)	6.3 (≈ 8.89 µM)	0.8 (≈ 1.13 µM)	3.1 (≈ 4.37 µM)

From patent US5696096A, “Pradimicin derivatives” (Bristol-Myers Squibb Company, priority 1990, dated 1997)
